Data as given in patent US20230405008A1, “TREATMENT OF HEMATOLOGICAL MALIGNANCIES WITH INHIBITORS OF MENIN” (Kura Oncology, Inc., priority 2020, published 2023).

Target: T1, menin-MLL interaction (Homo sapiens, UniProt O00255)
T1 sequence (O00255 1-610): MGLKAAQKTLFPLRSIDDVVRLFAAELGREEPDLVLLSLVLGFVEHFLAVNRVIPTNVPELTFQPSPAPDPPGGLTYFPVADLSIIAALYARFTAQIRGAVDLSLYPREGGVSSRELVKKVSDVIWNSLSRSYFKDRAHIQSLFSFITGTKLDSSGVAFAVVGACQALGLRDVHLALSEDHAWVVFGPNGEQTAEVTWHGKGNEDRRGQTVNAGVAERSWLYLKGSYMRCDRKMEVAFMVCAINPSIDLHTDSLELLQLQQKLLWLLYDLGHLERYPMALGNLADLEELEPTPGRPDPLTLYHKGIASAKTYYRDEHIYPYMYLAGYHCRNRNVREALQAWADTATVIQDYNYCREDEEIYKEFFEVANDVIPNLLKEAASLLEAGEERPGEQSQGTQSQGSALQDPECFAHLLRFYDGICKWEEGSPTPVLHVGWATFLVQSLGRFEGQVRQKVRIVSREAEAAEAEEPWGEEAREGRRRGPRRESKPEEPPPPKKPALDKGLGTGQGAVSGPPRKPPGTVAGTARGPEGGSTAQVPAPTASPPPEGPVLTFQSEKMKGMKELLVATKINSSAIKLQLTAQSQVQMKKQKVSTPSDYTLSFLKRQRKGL
Experiment: Fluorescence polarization (FP) competition assay
Assay type: binding
Conditions: menin / MLL 4-43 peptide

| IC50 [nM] | SMILES |
| --- | --- |
| 250 to 1000 | Cc1c(CN2CCC(Nc3ncnc4sc(CC(F)(F)F)cc34)CC2)ccc2c1cc(C#N)n2C[C@@H](C)N1CCN(C=O)CC1 [Compound I-67] |
| 250 to 1000 | Cc1c(CN2CCC(Nc3ncnc4sc(CC(F)(F)F)cc34)CC2)ccc2c1cc(C#N)n2CC(C)N1CCN(S(C)(=O)=O)C(C(=O)O)C1 (stereo not shown) [Compound I-82] |
| 250 to 1000 | Cc1c(CN2CCC(Nc3ncnc4sc(CC(F)(F)F)cc34)CC2)ccc2c1cc(C#N)n2C[C@H](C)N1CCN(C(=O)C(F)(F)F)CC1 [Compound I-118] |
| 50 to 250 | CNS(=O)(=O)N1CCN(C(C)Cn2c(C#N)cc3c(C)c(CN4CCC(Nc5ncnc6sc(CC(F)(F)F)cc56)CC4)ccc32)CC1 (stereo not shown) [Compound I-128] |
| 250 to 1000 | Cc1c(CN2CCC(Nc3ncnc4sc(CC(F)(F)F)cc34)CC2)ccc2c1cc(C#N)n2C[C@H](C)N1CCC(NP(C)(C)=O)CC1 [Compound I-157] |
| 50 to 250 | Cc1c(CN2CCC(Nc3ncnc4sc(CC(F)(F)F)cc34)CC2)ccc2c1cc(C#N)n2CC(C)N1CCC(NS(C)(=O)=O)C1 (stereo not shown) [Compound I-162] |
| 250 to 1000 | Cc1c(CN2CCC(Nc3nc(C4CC4)nc4sc(CC(F)(F)F)cc34)CC2)ccc2c1cc(C#N)n2C[C@H](C)N1CCN(S(C)(=O)=O)CC1 [Compound I-173] |
| 50 to 250 | CNc1nc(NC2CCN(Cc3ccc4c(cc(C#N)n4C[C@H](C)N4CCN(S(=O)(=O)NC)CC4)c3C)CC2)c2cc(CC(F)(F)F)sc2n1 [Compound I-185] |
| 250 to 1000 | Cc1nc(NC2CCN(Cc3ccc4c(cc(C#N)n4C[C@@H](C)N4CCN(S(C)(=O)=O)CC4)c3C)CC2)c2cc(CC(F)(F)F)sc2n1 [Compound I-201] |
| < 50 | CNc1nc(NC2CCN(Cc3ccc4c(cc(C#N)n4CCN4CCN(S(C)(=O)=O)[C@H](C#N)C4)c3C)CC2)c2cc(CC(F)(F)F)sc2n1 [Compound I-209] |
| < 50 | COc1nc(NC2CCN(Cc3ccc4c(cc(C#N)n4C[C@H](C)N4CCC(S(C)(=O)=O)CC4)c3C)CC2)c2cc(CC(F)(F)F)sc2n1 [Compound I-218] |
| 250 to 1000 | CCS(=O)(=O)NC12CC(Cn3c(C#N)cc4c(C)c(CN5CCC(Nc6ncnc7sc(CC(F)(F)F)cc67)CC5)ccc43)(C1)C2 [II-4] |
| < 50 | Cc1c(CN2CCC(Nc3ncnc4sc(CC(F)(F)F)cc34)CC2)ccc2c1cc(C#N)n2CC12CC(NC(=O)C3CCCC(=O)N3)(C1)C2 (stereo not shown) [II-35] |
| 50 to 250 | Cc1c(CN2CCC3(CCN(c4ncnc5sc(CC(F)(F)F)cc45)C3)C2)ccc2[nH]c(C#N)cc12 (stereo not shown) [III-30a] |
| 50 to 250 | CS(=O)(=O)Nc1ccc(CN2CCC3(CCN(c4ncnc5sc(CC(F)(F)F)cc45)C3)C2)cc1 (stereo not shown) [III-38] |
| 250 to 1000 | CS(=O)(=O)N[C@H]1CC[C@H](CN2CCC3(CCN(c4ncnc5sc(CC(F)(F)F)cc45)C3)C2)CC1 (stereo partly shown) [III-48] |

The remaining lines, values behind:

| SMILES | IC50 [nM] |
| --- | --- |
| C=CC(=O)Nc1ccc(C(Cn2c(C#N)cc3c(C)c(CN4CCC(Nc5ncnc6sc(CC(F)(F)F)cc56)CC4)ccc32)OC)cc1 (stereo not shown) [Compound I-1] | 250 to 1000 |
| Cc1c(CN2CCC(Nc3ncnc4sc(CC(F)(F)F)cc34)CC2)ccc2c1cc(C#N)n2CC(C)C1CCN(S(C)(=O)=O)CC1 (stereo not shown) [Compound I-3] | 250 to 1000 |
| Cc1c(CN2CCC(Nc3ncnc4sc(CC(F)(F)F)cc34)CC2)ccc2c1cc(C#N)n2CC(C(C)C)N1CCN(S(C)(=O)=O)CC1 (stereo not shown) [Compound I-24] | 250 to 1000 |
| CC[C@H]1CN(C(C)Cn2c(C#N)cc3c(C)c(CN4CCC(Nc5ncnc6sc(CC(F)(F)F)cc56)CC4)ccc32)CCN1S(C)(=O)=O (stereo partly shown) [Compound I-26] | 250 to 1000 |
| Cc1c(CN2CCC(Nc3ncnc4sc(CC(F)(F)F)cc34)CC2)ccc2c1cc(C#N)n2CCN1CC(C)N(S(C)(=O)=O)CC1C (stereo not shown) [Compound I-44] | 250 to 1000 |
| Cc1c(CN2CCC(Nc3ncnc4sc(CC(F)(F)F)cc34)CC2)ccc2c1cc(C#N)n2CCN1CCN(S(C)(=O)=O)CC1C (stereo not shown) [Compound I-45] | 250 to 1000 |
| Cc1c(CN2CCC(Nc3ncnc4sc(CC(F)(F)F)cc34)CC2)ccc2c1cc(C#N)n2CCN1CCN(C2CCN(S(C)(=O)=O)C2)CC1 (stereo not shown) [Compound I-52] | 250 to 1000 |
| Cc1c(CN2CCC(Nc3ncnc4sc(CC(F)(F)F)cc34)CC2)ccc2c1cc(C#N)n2CCN1CCC2(CCN(S(C)(=O)=O)C2)C1 (stereo not shown) [Compound I-53] | 250 to 1000 |
| Cc1c(CN2CCC(Nc3ncnc4sc(CC(F)(F)F)cc34)CC2)ccc2c1cc(C#N)n2CCN1CCC2(CC1)CC(S(C)(=O)=O)C2 [Compound I-54] | 50 to 250 |
| Cc1c(CN2CCC(Nc3ncnc4sc(CC(F)(F)F)cc34)CC2)ccc2c1cc(C#N)n2CCN1CC2CN(S(C)(=O)=O)CC2C1 (stereo not shown) [Compound I-55] | 250 to 1000 |
| Cc1c(CN2CCC(Nc3ncnc4sc(CC(F)(F)F)cc34)CC2)ccc2c1cc(C#N)n2CCN1CC2(CCN(S(C)(=O)=O)CC2)C1 [Compound I-56] | 250 to 1000 |
| Cc1c(CN2CCC(Nc3ncnc4sc(CC(F)(F)F)cc34)CC2)ccc2c1cc(C#N)n2CCN1CC2(C1)CN(S(C)(=O)=O)C2 [Compound I-57] | 250 to 1000 |
| Cc1c(CN2CCC(Nc3ncnc4sc(CC(F)(F)F)cc34)CC2)ccc2c1cc(C#N)n2CCN1CC2(CCN(S(C)(=O)=O)C2)C1 [Compound I-58] | 250 to 1000 |
| Cc1c(CN2CCC(Nc3ncnc4sc(CC(F)(F)F)cc34)CC2)ccc2c1cc(C#N)n2CCC1CCN(S(C)(=O)=O)C(C)C1 (stereo not shown) [Compound I-59] | 250 to 1000 |
| CNS(=O)(=O)N1CCN([C@H](C)Cn2c(C#N)cc3c(C)c(CN4CCC(Nc5ncnc6sc(CC(F)(F)F)cc56)CC4)ccc32)CC1 [Compound I-66] | 250 to 1000 |
